US20120157385A1, “CYCLOSPORIN CONJUGATES” (UCL Business PLC, priority 2009, published 2012)

Legend:
CyP-D(+) B50 cells = test: TMRE uptake (inner membrane potential) in B50 cells and CyP-D overexpressing clone; type: cell-based, rat
[1] = test system: caspase-3 activation in B50 cells; test: Nitroprusside-induced caspase-3 activation in B50 cells (marker of CyP-A activity); type: cell-based, rat; settings: 100 μM nitroprusside 40 min, assayed after 5 hr, Compound 1 at 2.5 μM
rat hippocampal neurons = test: Oxygen and glucose deprivation (pseudo ischaemia/reperfusion) induced necrosis of hippocampal neurons; type: cell-based; settings: for protection against neuron mortality (necrosis) following OGD: within 90 min, about 60% of neurons necrotic without compound
[2] = test system: Permeability Transition (PT) pore; test: Ca2+-induced PT pore opening (swelling, absorbance at 540 nm) in isolated mitochondria; type: biochemical; settings: read-out: concentration giving 50% inhibition of PT pore opening; isolated rat liver mitochondria, 50 μM Ca2+ infused slowly
[3] = test system: intramitochondrial CyP-D rather than extramitochondrial CyP-A; settings: for mitochondrial matrix/extramitochondrial accumulation ratio: isolated rat liver mitochondria plus recombinant CyP-A, 25° C.
[4] = test system: rat heart cells (ventricular cardiomyocytes); test: Oxygen and glucose deprivation / reoxygenation induced necrosis of heart cells; type: cell-based
cyclophilin D (CyP-D) = cyclophilin D (CyP-D) (Rattus norvegicus, UniProt P29117); test: PPIase assay, inhibition of recombinant CyP-D by cyclosporins
Chain of cyclophilin D (CyP-D) (P29117 30-206): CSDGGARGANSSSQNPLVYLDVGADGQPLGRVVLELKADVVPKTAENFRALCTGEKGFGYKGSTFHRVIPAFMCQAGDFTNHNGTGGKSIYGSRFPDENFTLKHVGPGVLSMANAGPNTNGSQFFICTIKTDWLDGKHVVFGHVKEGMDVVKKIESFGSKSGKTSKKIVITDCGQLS

## C/C=C/C[C@@H](C)[C@@H](O)[C@H]1C(=O)N[C@@H](CC)C(=O)N(C)C(Cc2ccc(C(=O)NCCCCCCNC(=O)CCCCC[P+](c3ccccc3)(c3ccccc3)c3ccccc3)cc2)C(=O)N(C)[C@@H](CC(C)C)C(=O)N[C@@H](C(C)C)C(=O)N(C)[C@@H](CC(C)C)C(=O)N[C@@H](C)C(=O)N[C@H](C)C(=O)N(C)[C@@H](CC(C)C)C(=O)N(C)[C@@H](CC(C)C)C(=O)N(C)[C@@H](C(C)C)C(=O)N1C (stereo partly drawn) [Compound 1, (6-(6-(4-(((5S,8S,11S,14S,17R,20S,23S,26S,29S,32S)-32-ethyl-29-((1R,2R,E)-1-hydroxy-2-methylhex-4-enyl)-5,11,20,23-tetraisobutyl-8,26-diisopropyl-1,4,10,14,17,19,22,25,28-nonamethyl-3,6,9,12,15,18,21,24,27,30,33-undecaoxo-1,4,7,10,13,16,19,22,25,28,31-undecaazacyclotritriacontan-2-yl)methyl)benzamido)hexylamino)-6-oxohexyl)triphenylphosphonium]
CyP-D(+) B50 cells; B50 clone overexpressing CyP-D about 10-fold, 50 nM TMRE
  concentration for maximal restoration of TMRE uptake by CyP-D(+) cells: ~2400 nM
CyP-D(+) B50 cells; wild type B50 cells, 0.8 μM CsA, 2.4 μM Compound 1
  effect on TMRE uptake by wild type cells: did not affect
[1]
  effect on nitroprusside-induced activation of caspase-3: no significant effect
Rat hippocampal neurons; 30 min OGD
  protection against neuron mortality (necrosis) following OGD: approximately halved
Rat hippocampal neurons; hippocampal neurons, 30 min OGD
  concentration giving maximal protection against OGD-induced necrosis: > 0.8 µM
[2]
  IC50: ~400 nM
[3]; same incubation, CyP-A activity in supernatant
  inhibition of PT pore formation compared with inhibition of extramitochondrial CyP-A: considerably better

## CC[C@@H]1NC(=O)[C@H]([C@H](O)[C@H](C)C/C=C/C(=O)NCCOCCNC(=O)CC[P+](c2ccccc2)(c2ccccc2)c2ccccc2)N(C)C(=O)[C@H](C(C)C)N(C)C(=O)[C@H](CC(C)C)N(C)C(=O)[C@H](CC(C)C)N(C)C(=O)[C@@H](C)NC(=O)[C@H](C)NC(=O)[C@H](CC(C)C)N(C)C(=O)[C@H](C(C)C)NC(=O)[C@H](CC(C)C)N(C)C(=O)CN(C)C1=O [Compound 2, (16R,17R,E)-17-((2S,5S,11S,14S,17S,20S,23R,26S,29S,32S)-5-ethyl-11,17,26,29-tetraisobutyl-14,32-diisopropyl-1,7,10,16,20,23,25,28,31-nonamethyl-3,6,9,12,15,18,21,24,27,30,33-undecaoxo-1,4,7,10,13,16,19,22,25,28,31-undecaazacyclotritriacontan-2-yl)-17-hydroxy-16-methyl-4,12-dioxo-1,1,1-triphenyl-8-oxa-5,11-diaza-1-phosphoniaheptadec-13-ene]
[4]; 5 hours reoxygenation, in particular first 3 hours
  necrosis during reoxygenation: inhibited
[4]; before reoxygenation, with or without compound
  necrosis induced by OGD for 4 hours: negligible necrosis
[4]; necrosis after 3 hours of reoxygenation, 15 nM
  cytoprotection at 15 nM: complete protection
Cyclophilin D (CyP-D)
  Ki: 30 nM
[3]
  mitochondrial matrix/extramitochondrial accumulation ratio: >10

## C/C=C/C[C@@H](C)[C@@H](O)[C@H]1C(=O)N[C@@H](CC)C(=O)N(C)C(Cc2ccc(C(=O)NCCOCCNC(=O)CC[P+](c3ccccc3)(c3ccccc3)c3ccccc3)cc2)C(=O)N(C)[C@@H](CC(C)C)C(=O)N[C@@H](C(C)C)C(=O)N(C)[C@@H](CC(C)C)C(=O)N[C@@H](C)C(=O)N[C@H](C)C(=O)N(C)[C@@H](CC(C)C)C(=O)N(C)[C@@H](CC(C)C)C(=O)N(C)[C@@H](C(C)C)C(=O)N1C (stereo partly drawn) [Compound 3, 12-(4-(((5S,8S,11S,14S,17R,20S,23S,26S,29S,32S)-32-ethyl-29-((1R,2R,E)-1-hydroxy-2-methylhex-4-enyl)-5,11,20,23-tetraisobutyl-8,26-diisopropyl-1,4,10,14,17,19,22,25,28-nonamethyl-3,6,9,12,15,18,21,24,27,30,33-undecaoxo-1,4,7,10,13,16,19,22,25,28,31-undecaazacyclotritriacontan-2-yl)methyl)phenyl)-4,12-dioxo-1,1,1-triphenyl-8-oxa-5,11-diaza-1-phosphoniadodecane]
Cyclophilin D (CyP-D)
  Ki: 6 nM
[3]
  mitochondrial matrix/extramitochondrial accumulation ratio: >10

## C/C=C/C[C@@H](C)[C@@H](O)[C@H]1C(=O)N[C@@H](CC)C(=O)N(C)C(Cc2ccc(C(=O)NCCCCCCNC(=O)c3ccc(-c4c5ccc(=[N+](C)C)cc-5oc5cc(N(C)C)ccc45)cc3)cc2)C(=O)N(C)[C@@H](CC(C)C)C(=O)N[C@@H](C(C)C)C(=O)N(C)[C@@H](CC(C)C)C(=O)N[C@@H](C)C(=O)N[C@H](C)C(=O)N(C)[C@@H](CC(C)C)C(=O)N(C)[C@@H](CC(C)C)C(=O)N(C)[C@@H](C(C)C)C(=O)N1C (some centres unmarked) [Compound 4]
Cyclophilin D (CyP-D)
  Ki: 120 nM
[3]
  mitochondrial matrix/extramitochondrial accumulation ratio: 4.2

## C/C=C/C[C@@H](C)[C@@H](O)[C@H]1C(=O)N[C@@H](CC)C(=O)N(C)CC(=O)N(C)[C@@H](CC(C)C)C(=O)N[C@@H](C(C)C)C(=O)N(C)[C@@H](CC(C)C)C(=O)N[C@@H](C)C(=O)N[C@H](C)C(=O)N(C)[C@@H](CC(C)C)C(=O)N(C)[C@@H](CC(C)C)C(=O)N(C)[C@@H](C(C)C)C(=O)N1C [CsA, Cyclosporin A]
[4]; necrosis after 3 hours of reoxygenation
  maximal protection: 42%
Rat hippocampal neurons; 30 min OGD
  protection against neuron mortality (necrosis) following OGD: less protective
Rat hippocampal neurons; hippocampal neurons, 0.1 μM
  protection against OGD-induced necrosis at 0.1 μM: relatively small protection
Rat hippocampal neurons; hippocampal neurons, above 0.1 μM
  protection against OGD-induced necrosis at higher concentrations: reversed
